Where two headings read alike, the source gives them in different places.
Columns and labels:
Format in all cases: biochemical
rat nNOS = target: T1, rat nNOS (Rattus norvegicus, UniProt P29476); experiment: NOS enzyme inhibitory assay (hemoglobin capture), nNOS; details: for IC50: rat nNOS, 10 μM L-arginine
T1 construct: made in house; host or cells: E. coli (plasmid pCWnNOS)
Description: (§1) All of the NOS isoforms used were recombinant enzymes overexpressed in E. coli from different sources. Nitric oxide formation from NOS was monitored by the hemoglobin capture assay as described in the literature.
After approximately 48 h of post-induction incubation in the dark at 25° C. the cells were pelleted at 5300×g, transferred to 50 mL conical tubes, and stored at −80° C.
nNOS purification: Cell pellets from 2.0 L of culture were resuspended in sonication Buffer A (50 mM Tris Base Buffer, pH 8.0, 10% glycerol), 2 mg/ml lysozyme. 0.5 mM L-arginine. 1 mM EDTA, 0.1 mM PMSF, 1 µg/ml antipain, and 1 μM each of leupeptin, […], and […]) and lysed by sonication. Centrifugation for 1 h at 100000×g yielded supernatant which contained nNOS active enzyme. The supernatant was brought to 2 mM CaCl2 and the protein was loaded onto a 15 ml calmodulin-Sepharose column equilibrated with Buffer A containing 2 mM CaCl2. The column was washed with 100 ml Buffer B (50 mM Hepes, 5 mM DTT, and […]) containing 2 mM CaCl2, 0.5 mM L-arginine, and 10 μM BH4, and eluted with 30 ml Buffer B supplemented with 0.3 M NaCl, 5 mM EGTA, 0.5 mM L-arginine, and 10 μM BH4. The protein was then loaded onto a 5 ml 2′,5′-ADP-Sepharose column equilibrated with Buffer B supplemented with 0.3 M NaCl, 0.5 mM L-arginine, and 10 μM BH4. The column was washed with 25 ml Buffer B containing 0.5 mM L-arginine and 10 μM BH4, and then 25 ml of Buffer B only supplemented with 10 μM BH4 (without L-arginine). Neuronal NOS was eluted with 20 ml Buffer B supplemented with 10 mM 2′(3′)-AMP, 10 μM BH4 and 0.3 M NaCl. The 20 ml eluent was then concentrated to 5 ml by ultrafiltration. The above concentration operation was repeated twice more with 10 ml Buffer B supplemented with 10 µM BH4 to give the purified neuronal NOS.
Nitric oxide formation from NOS was monitored by the hemoglobin capture assay as described previously.
(§2) The selectivity of an inhibitor is defined as the ratio of the respective Ki values.

murine iNOS = target: T2, murine iNOS (Mus musculus, UniProt P29477); experiment: NOS enzyme inhibitory assay (hemoglobin capture), iNOS; details: for IC50: murine iNOS, 10 μM L-arginine
T2 construct: made in house; host or cells: E. coli (plasmid pCWiNOS)
Description: as §1
Enzyme inhibitory assay. All of the NOS isoforms used are recombinant enzymes overexpressed in E. coli from different sources.
iNOS expression: An overnight culture of pCWiNOS was used to inoculate (1:100) larger cultures of Terrific Broth media (12 g/L tryptone, 24 g/L yeast extract, 4 mL/L glycerol, 17 mM KH2PO4, and 72 mM K2HPO4) containing 50 μg/mL ampicillin and 34 μg/mL chloramphenicol at 37° C. At an OD600 of ˜0.5, the culture was cooled to 25° C. and induced by the addition of 1 mM IPTG (final concentration). After approximately 24 h of growth at 25° C., the cells were pelleted at 5300×g, transferred to 50 mL conical tubes, and stored at −80° C.
iNOS purification: Cell pellets from 1.0 L of culture were resuspended in sonication buffer (50 mM Hepes, pH 7.4, 10% glycerol, 10 μg/mL benzamidine, 5 μg/mL leupeptin, 0.2 mM of PMSF, and 1 μg/mL each of pepstatin, chymostatin, and antipain) and lysed by sonication. Centrifugation for 20 min at 13000×g yielded supernatant which contained iNOS active enzyme. iNOS supernatant was loaded onto 1 g of a 2′,5′-ADP-Sepharose 4B resin column. The column was then washed with 20 ml iNOS purification buffer (10 mM K2HPO4, 10% glycerol, 0.5 mM L-arginine, pH 7.4) and 10 μM BH4. Inducible NOS was eluted with 30 ml iNOS purification buffer supplemented with 10 mM 2′(3′)-AMP, 10 μM BH4, and 0.3 M NaCl. The eluent was concentrated to 5 ml by ultrafiltration. The above concentration operation was repeated three times more with 10 ml Hepes buffer supplemented with 10 μM BH4, to give purified inducible NOS.
(§3) Nitric oxide formation from NOS was monitored by the hemoglobin capture assay as described previously. (Hevel, J. M.; Marletta, M. A. Nitric Oxide Synthase Assays. Methods Enzymol. 1994, […], 250-258).
as §2

bovine eNOS = target: T3, bovine eNOS (Bos taurus, UniProt P29473); experiment: NOS enzyme inhibitory assay (hemoglobin capture), eNOS; details: for IC50: bovine eNOS, 10 μM L-arginine, * = no inhibition observed up to the concentration listed
T3 construct: made in house; host or cells: E. coli (plasmid Bov-eNOSpCW)
Description: as §1
Expression of bovine eNOS: An overnight culture of Bov-eNOSpCW was used to inoculate 0.5 liter (in a 2.8-liter Fernbach flask) of modified TB (20 g of yeast extract, 10 g of bacto-tryptone, 2.65 g of KH2PO4, 4.33 g of Na2HPO4 and 4 ml of glycerol per liter) containing ampicillin ([…]) and chloramphenicol ([…]). The cultures were grown to an OD600 of z0.8 at 22° C. (200 rpm) and induced with 0.5 mM IPTG. One hour before IPTG induction, d-aminolevulinic acid (0.5 mM final) was added and, at the time of IPTG induction, riboflavin ([…]) and ATP (1 mM final) were also added. After induction, the flasks were kept in the dark at 22° C. (200 rpm). The cells were harvested 48 h after induction, and the cell pellet was frozen at −80° C. until purification was carried out.
Purification of bovine eNOS. The purification was typically carried out with eNOS from 2 liters of E. coli culture. The eNOS protein was purified using a modification of the published protocol for nNOS (14). The cells were resuspended in buffer C [50 mM Tris-Cl, pH 7.8, 1 mM EDTA, 1 mM DTT, 10% glycerol (v/v), 150 mM NaCl, 0.1 mM phenylmethylsulfonyl fluoride, […]], lysed by pulsed sonication and then centrifuged to sediment the cell debris. The supernatant was applied to a 2′,5′-ADP Sepharose 4B column equilibrated in buffer D [50 mM Tris-Cl, pH 7.8, 0.1 mM EDTA, 0.1 mM dithiothreitol, 150 mM NaCl, 10% glycerol (v/v)]. The column was washed with 20 column volumes of buffer B and again with 20 column volumes of buffer B containing 600 mM NaCl. Finally, protein was eluted with buffer B containing 600 mM NaCl and 5 mM 2′-AMP. The fractions were screened for absorption in the Soret region (A400) and hemoprotein-containing fractions were pooled and concentrated (Centriprep 50, Amicon). Repeated dilution/concentration [50 mM Tris-Cl, pH 7.8, 0.1 mM EDTA, 0.1 mM dithiothreitol, 10% glycerol (vol/vol)] was used to reach a final concentration of 150 mM NaCl and commensurately reduce the 2′-AMP content. […] The purified eNOS is stored in the presence of 1 mM L-arginine.
eNOS washing: eNOS contains a significant amount of L-arginine, which will interfere with the enzyme assay. The L-arginine can be removed by several dilution and concentration steps using an Amico concentrator. The dilution buffer is 10 ml Tris-HCl 50 mM containing 0.1 mM EDTA, 400 mM NaCl, 10% glycerol and 1 mM beta-mercaptoethanol. The above dilution and concentration operation was repeated three times to give purified eNOS.
as §3, §2

[1] = Table 1a, apparent Ki calculated from IC50, Km […], read-out: calc. Ki nNOS
[2] = Table 1a, apparent Ki calculated from IC50, Km […], read-out: calc. Ki iNOS
[3] = Table 1a, apparent Ki calculated from IC50, Km 1.7 μM, read-out: calc. Ki eNOS
[4] = Table 1b, ratio of Ki values eNOS/nNOS
[5] = Table 1b, ratio of Ki values iNOS/nNOS

Row | SMILES | Selectivity n/e (rat nNOS; Table 1a, Ki(eNOS)/Ki(nNOS)) | Selectivity n/i (rat nNOS; Table 1a, Ki(iNOS)/Ki(nNOS)) | Ki (rat nNOS; [1]) [µM] | IC50 (rat nNOS; Table 1a) [µM] | Ki (murine iNOS; [2]) [µM] | IC50 (murine iNOS; Table 1a) [µM] | Ki (bovine eNOS; [3]) [µM] | IC50 (bovine eNOS; Table 1a) [µM] | Selectivity n/e (rat nNOS; [4]) | Selectivity n/i (rat nNOS; [5]) | Ki (rat nNOS; Table 1b, read-out: Ki nNOS) [µM] | Ki (murine iNOS; Table 1b, read-out: Ki iNOS) [µM] | Ki (bovine eNOS; Table 1b, read-out: Ki eNOS) [µM]
1 | Nc1cccc(CC2CNCC2NC2CCN(Cc3ccccc3)C2)n1 (stereo not shown) [Compound P-38] | 66.19 | 155.05 | 2.74 | 23.8 | 425 | 937 | 181 | 1250 | – | – | – | – | –
2 | Nc1cccc(CC2CNCC2NC2CCNC2)n1 (racemic) [Compound P-35] | 311.85 | 146.75 | 1.36 | 11.8 | 200 | 440 | 424 | 2920 | – | – | – | – | –
3 | Cc1cc(N)nc(C[C@H]2CNC[C@@H]2OCCN)c1.Cl.Cl.Cl (racemic) [Compound P-81] | – | – | – | – | – | – | – | – | 0.3 | 1.7 | 5 | 8.5 | 1.5
4 | Nc1cccc(CC2CNCC2NCC(N)Cc2ccccc2)n1 (racemic) [Compound P-16] | >104.83 | 21.54 | 13.9 | 120 | 299 | 658 | > 1450 | > 10000 | – | – | – | – | –
5 | Nc1cccc(CC2CNCC2NC2CCN(Cc3ccccc3)C2)n1 (stereo not shown) [Compound P-36] | 32.20 | 66.39 | 3.34 | 29 | 222 | 489 | 108 | 740 | – | – | – | – | –
6 | Cc1cc(N)nc(CC2CNCC2NCCNCc2cccc(C(F)(F)F)c2)c1.Cl.Cl.Cl.Cl (racemic) [Compound P-58] | – | – | – | – | – | – | – | – | 146.1 | 79 | 0.74 | 58.7 | 109
7 | CN(C)CCNC1CNCC1Cc1cccc(N)n1 (racemic) [Compound P-15] | 15.41 | 19.65 | 15.7 | 136 | 308 | 679 | 242 | 1660 | – | – | – | – | –
8 | Nc1cccc(CC2CNCC2NCC(N)Cc2ccccc2)n1 (racemic) [Compound P-32] | >632 | 129.09 | 2.3 | 20 | 297 | 655 | > 1450 | > 10000 | – | – | – | – | –
9 | Cc1cc(N)nc(C[C@H]2CNC[C@H]2NCCNCc2ccc(Cl)cc2Cl)c1.Cl.Cl.Cl.Cl (racemic) [Compound P-61] | – | – | – | – | – | – | – | – | 272 | 70 | 0.11 | 7.7 | 29.9
10 | Cc1cc(N)nc(C[C@H]2CNC[C@@H]2NCCNCCc2ccc(F)cc2)c1.Cl.Cl.Cl.Cl (racemic) [Compound P-72] | – | – | – | – | – | – | – | – | 370.5 | 189.9 | 0.119 | 22.6 | 44.1
11 | Cc1cc(N)nc(CC2CNCC2NCCNCc2ccc(C(F)(F)F)cc2)c1.Cl.Cl.Cl.Cl (racemic) [Compound P-56] | – | – | – | – | – | – | – | – | – | – | – | – | 61.2
12 | Cc1cc(N)nc(C[C@H]2CNC[C@H]2OCC(=O)NCCc2cccc(F)c2)c1 (racemic) [Compound P-79, (±)-2-{cis-4-[(6-amino-4-methylpyridin-2-yl)methyl]pyrrolidin-3-yloxy}-N-(3-fluorophenethyl)acetamide] | – | – | – | – | – | – | – | – | – | – | – | 13 | 125
13 | Cc1cc(N)nc(CC2CNCC2N(C)CCNCc2ccc(Cl)cc2)c1 (racemic) [Compound P-64] | – | – | – | – | – | – | – | – | – | – | – | – | 125
14 | Cc1cc(N)nc(C[C@H]2CNC[C@@H]2N(C)CCNCc2ccc(Cl)cc2)c1 (racemic) [Compound P-69] | – | – | – | – | – | – | – | – | – | – | – | – | 58.1
